From PMC12154426, “TPP-Based Nanovesicles Kill MDR Neuroblastoma Cells and Induce Moderate ROS Increase, While Exerting Low Toxicity Towards Primary Cell Cultures: An In Vitro Study” (International Journal of Molecular Sciences, 2025)
“And” between values parts separate entries of the source, which are not always exact repeats. Equal values may be shown once.

What was measured:
HTLA 230 = assay: DCFH assay of ROS (H2O2) production, HTLA 230; format: cell-based, human; details: for highest value of DCFH-positive cells: normalized for protein content, control = 1
Text: (§1) It has been reported that the administration of TPP-based compounds, including TPP-based bola amphiphilic nanovesicles such as BPPB, induce ROS overproduction, thus causing oxidative stress (OS), which has been widely reported to be involved in the anticancer effect of several chemotherapeutic drugs, including etoposide, doxorubicin [38], and cisplatin [39]. […] On the contrary, the role of ROS was scarcely present in PLX-resistant CMM cells exposed to the same concentrations of BPPB [13]. With these considerations, we evaluated ROS levels also in NB cells treated with BPPB, since this experiment would have been particularly helpful to understand whether (i) these nanovesicles’ preparation exerts its cytotoxic action on HTLA 230 and ER cells through ROS production, as in PLX-sensitive CMM cells; or (ii) the resistance acquired by HTLA ER based on high levels of antioxidants, following chronic treatment with etoposide, conferred resistance also to a preparation based on the use of nanovesicles (BPPBs). Moreover, the evaluation of ROS levels can be an indirect method to ascertain and confirm the presence of apoptosis, since as reported, low levels of ROS induce apoptosis and high levels induce necrosis.Therefore, to investigate the pro-oxidant action of BPPB also in HTLA 230 and HTLA ER NB cells, ROS levels were evaluated in both NB cell populations exposed for 24–72 h to increasing concentrations (0.1–2 µM) of BPPB using the DCFH essay (Figure 4). The results were reported as a percentage of cells positive to DCFH normalized for protein content. Raw fluorescence data are, in fact, not applicable since an increase in fluorescence could be due to a high number of cells but also to an increased production of H2O2 induced by the treatments. This is the reason why it is necessary to normalize the fluorescence data to the protein content. Other cellular assays measuring oxidative damage, including lipid peroxidation or protein carbonylation, are likely too complex for low-tier early hazard assessment or hazard screening. Conversely, the cellular DCFH assay is a simpler and widely used alternative, which measures intracellular ROS production by forming a fluorescent product (DCF) upon oxidation by free radicals produced by cells.
(§2) The production of H2O2 was evaluated using 2′-7′-dichlorofluorescein-diacetate (DCFH-DA; Merk Life Science S.r.l. Milan, Italy), as previously reported. Briefly, NB cells (10^4 cells/well) were seeded in 96-well plates (Corning) and treated. Then, cells were stained with 2′-7′ di-chloro-fluorescein-diacetate (DCFH-DA; Sigma-Aldrich) and incubated with 90% DMSO for an additional 10 min in the dark. The generated fluorescence intensity was monitored with a Perkin Elmer fluorometer (Perkin Elmer Life and Analytical Sciences, Shelton, WA, USA) at 485/530 nm excitation/emission. Values were normalized to the protein content.

spinal cord astrocytes = assay: MTT cytotoxicity assay on spinal cord astrocyte primary cell cultures; format: cell-based, C57BL/6J mice; details: for IC50: 0.12–11.73 µM
Text: Similarly to the assessment of haemolytic toxicity, the evaluation of cytotoxicity towards mammalian cells is another pivotal step to afford in the early stage of drug development, before undertaking other costly and time-consuming in vivo experiments. […] The cytotoxicity of quaternary phosphonium salts (QPSs) depends mainly on their physicochemical characteristics, including the number of carbon atoms of alkyl chains, the presence of aromatic ring(s) on which the P^+ cationic charge can delocalize, the type of counter anions, the possible colloidal properties, and the probable capability to form nano aggregates. The specific types of cells exposed to QPSs can further influence their cytotoxicity. In this regard, the constituents of membranes of cancer cells are different from those of mammalian cells. This makes them more susceptible to the disruptive action of cationic compounds, thus making QPSs’ possible cytotoxicity towards tumour cells higher than towards normal ones. Anyway, a certain cytotoxicity could manifest also in normal cells and quantifying it is mandatory. Based on these considerations, although NB is a neuroendocrine tumour which derives from neural crest cells, we investigated the BPPB toxic effects on primary cell cultures, namely spinal cord astrocytes and cortical neurons. Astrocyte primary cultures have emerged as an important tool for understanding the responses of normal cells under both physiological and pathological conditions. On the other hand, primary neuronal cell cultures are best suited for drug discovery and drug development. Primary cell cultures freshly prepared from animals reproduce physiological conditions astonishingly like the in vivo situation. As for our knowledge, it is the first time that the cytotoxicity of a bola amphiphilic compound is assessed on primary cultures of astrocytes and neurons. More generically, the existent studies on the cytotoxicity of synthetic QPSs, or of a generic exogenous synthetic cationic organic compound or polymer on astrocytes and neurons primary cell cultures, are limited. As examples, upon a rapid survey, we have found a study on the mechanism by which amine-modified cationic polystyrene nanoparticles induced cell death in a human brain astrocytoma cell line, but not in primary astrocytes. A study on the mechanism by which endogenous eosinophil cationic protein/RNase 3 induced cell death in primary astrocytes was found, but exogenous synthetic cationic compounds were not considered. Concerning primary neurons, the cytotoxicity of both a commercial (LA2000) and a newly prepared cationic lipid (Arg (TFA^−)) vs. primary neurons was assessed by Aoshima et al.. The cytotoxicity of a library of 80 compounds, among which only 2/3 molecules were cationic salts, was evaluated in human-induced pluripotent stem cell (iPSC)-derived neural stem cells, neurons, and astrocytes by Pei et al.. Vidal et al. assessed the neurotoxicity of a cationic fourth generation (G4) amine dendrimer (G4-NH2) towards primary neuron cell cultures. […] Cell viability in neurons and astrocytes, treated with increasing concentrations of BPPB for 24, 48, and 72 h, was assessed using the MTT essay, which is a method endowed with simplicity, convenience, quantitative and high throughput, as well as reproducibility. MTT is a well-established method for assessing cell viability, and its reliability is supported by standardized protocols in many areas of research.
Astrocytes were prepared from the spinal cord of neonatal 2-day-old C57BL/6J mice as previously described, with minor modifications. Briefly, two days after birth, pups (P1-2) were euthanized by cervical dislocation by trained personnel, and spinal cords were rapidly removed. […]

HTLA ER = assay: DCFH assay of ROS (H2O2) production, HTLA ER; format: cell-based, human
Text: as §1, §2

## c1ccc([P+](CCCCCCCCCCCC[P+](c2ccccc2)(c2ccccc2)c2ccccc2)(c2ccccc2)c2ccccc2)cc1 [BPPB, 1,1-(1,12-dodecanediyl)-bis-[1,1,1]-triphenyl phosphonium di-bromide]
HTLA 230; 24 h
  concentration giving significant increase in ROS levels: ≥ 0.5 µM
  highest value of DCFH-positive cells: 2.96
HTLA 230; 24 h exposure
  increase in ROS with respect to the control: > 3 times
HTLA 230; 48 h
  average ROS production in HTLA 230 higher than in HTLA ER: 1.3 times
  concentration giving significant increase in ROS levels: ≥ 0.5 µM
  highest value of DCFH-positive cells: 3.05
HTLA 230; 72 h
  average ROS production in HTLA 230 higher than in HTLA ER: 1.4 times
  concentration giving significant increase in ROS levels: ≥ 0.25 µM
HTLA 230; 72 h, highest doses
  highest value of DCFH-positive cells: 5.8
HTLA 230; HTLA 230 and HTLA ER, 24 h
  more efficient in inducing ROS overproduction than TiO2-Ta nanoparticles: 9.4–23.4 fold
Spinal cord astrocytes; 1.17 µM, 48 h
  cell viability: 72.17%
Spinal cord astrocytes; 1.17 µM, 72 h
  cell viability: 69.31%
Spinal cord astrocytes; 2.93 µM, 24 h
  cell viability: 74.95%
Spinal cord astrocytes; 8.80 µM, 24 h
  cell viability: 47.14%
Spinal cord astrocytes; 8.80 µM, 72 h
  cell viability: 42.70%
Spinal cord astrocytes; 11.73 µM, 24 h
  cell viability: 20.22%
Spinal cord astrocytes; 11.73 µM, 48 h
  cell viability: 45.18%
Spinal cord astrocytes; 24 h exposure
  IC50: ~7.04 µM and 7.04 µM
Spinal cord astrocytes; 48 h exposure
  IC50: 11 ± 5.09 µM
Spinal cord astrocytes; 72 h exposure
  IC50: 5.09 ± 1.22 µM
Spinal cord astrocytes; HTLA 230 and HTLA ER, all exposure timings
  SI values with respect to primary spinal cord astrocytes: 4.25–23.73
Spinal cord astrocytes; NB cells with respect to neurons and astrocytes, maximum
  selectivity index values: up to 23.7
Spinal cord astrocytes; Spinal cord astrocytes vs. HTLA 230, 24 h
  SI 24 h: 7.61
Spinal cord astrocytes; Spinal cord astrocytes vs. HTLA 230, 48 h
  SI 48 h: 23.73
Spinal cord astrocytes; Spinal cord astrocytes vs. HTLA 230, 72 h
  SI 72 h: 13.09
Spinal cord astrocytes; Spinal cord astrocytes vs. HTLA ER, 24 h
  SI 24 h: 5.69
Spinal cord astrocytes; Spinal cord astrocytes vs. HTLA ER, 48 h
  SI 48 h: 8.10
Spinal cord astrocytes; Spinal cord astrocytes vs. HTLA ER, 72 h
  SI 72 h: 4.25
HTLA ER; 24 h
  concentration significantly inducing ROS overproduction: 1.25 µM
  concentrations that did not induce significant changes in ROS levels: ≤ 1 µM
HTLA ER; 24 h, normalized for protein content, control = 1
  highest value of DCFH-positive cells: 4.92
HTLA ER; 24 h exposure
  increase in ROS with respect to the control: > 4 times
HTLA ER; 48 h
  concentrations that did not induce significant changes in ROS levels: ≤ 1.25 µM
HTLA ER; 48 h, normalized for protein content, control = 1
  highest value of DCFH-positive cells: 3.67
HTLA ER; 72 h
  concentrations that did not induce significant changes in ROS levels: ≤ 0.75 µM
  maximal DCFH value in HTLA ER lower than in HTLA 230: 1.16 times
HTLA ER; 72 h, normalized for protein content, control = 1
  maximal value of DCFH-positive cells: 4.99
